Values quoted from earlier work, collected in patent publication US11576871B2 (The Regents of the University of California, priority 2016, dated 2023).

Experiments:
[1] = system: intracellular cystine in circulating white blood cells
[2] = children with cystinosis

SMILES | time to observed decrease in leukocyte cystine ([1]; delivery of cysteamine to the small intestine (WO 2007/089670)) | depletion of intracellular cystine ([1]; taken regularly, measured in circulating white blood cells) | reduction of urine volume (and liquid consumption) [2]
NCCS [cysteamine, Cysteamine] | within an hour | up to 90% | 
COc1ccc2c(c1)c(CC(=O)O)c(C)n2C(=O)c1ccc(Cl)cc1 [indomethacin] |  |  | about 30%
